The results in this text go back to PubChem BioAssay (NCI).

The term TGI denotes the concentration at which net growth stops. Lower therefore signals more potent growth arrest.

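Results reflect a 48-hour exposure of cells in 96-well plates to compound at five concentrations. The concentration for full growth arrest is given as TGI.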

Among the test systems are HCT-15 colon; HCC-2998 colon; M14 melanoma; HS 578T breast; SN12C renal; HL-60(TB) leukemia; HOP-92 NSCLC; BT-549 breast; COLO 205 colon; SR leukemia; MDA-N.
Assay in all cases: DTP human tumour cell line panel, 48 h

For the molecule `CCC12CCCN(Cc3ccccc3)C1c1c([nH]c3ccccc13)C(C(=O)OC)C2` (stereo unspecified), the TGI with HCT-15 colon, with HCC-2998 colon, in the assay on M14 melanoma, in the assay on HS 578T breast, with SN12C renal and in the assay with HL-60(TB) leukemia was more than 10 µM in each case. The TGI in the assay with HOP-92 NSCLC, in the assay on BT-549 breast, in the assay on COLO 205 colon, with SR leukemia and in the assay on MDA-N was more than 10 µM each time.

As to `C1CCC2(CC1)O[C@@H]1[C@@H](O2)[C@@H](O[C@H]2O[C@@H]3COC4(CCCCC4)O[C@H]3[C@@H]3OC4(CCCCC4)O[C@@H]23)O[C@@H]2COC3(CCCCC3)O[C@@H]12`, the total growth inhibition concentration (TGI) in the assay with M14 melanoma, with HS 578T breast, in the assay with SN12C renal, in the assay on HL-60(TB) leukemia, in the assay with HOP-92 NSCLC and in the assay with BT-549 breast was more than 100 µM throughout. Also, the total growth inhibition concentration (TGI) with COLO 205 colon and with MDA-N was more than 100 µM each time.

On to `CC(=O)OCCCOCn1c(Cc2ccccc2)c(C)c(=O)[nH]c1=O`, for which the TGI in the assay on HCT-15 colon, in the assay with HCC-2998 colon, in the assay on M14 melanoma, in the assay on HS 578T breast, with SN12C renal and in the assay on HOP-92 NSCLC was more than 100 µM each time. Also, the TGI in the assay with BT-549 breast, in the assay with COLO 205 colon, in the assay with SR leukemia and in the assay with MDA-N was more than 100 µM in each case.

Consider `COC(=O)C1Cc2c(OC)ccc(OC)c2CC(C(=O)OC)C1=O` (stereo unspecified), for which the TGI in the assay with HCT-15 colon, with HCC-2998 colon, in the assay on M14 melanoma, in the assay on HS 578T breast, with SN12C renal and in the assay with HOP-92 NSCLC was more than 100 µM throughout. The concentration for total growth inhibition (TGI) in the assay on BT-549 breast, in the assay on COLO 205 colon and in the assay with MDA-N was more than 100 µM throughout.

Regarding `CCCN1C(=O)CC(C)N(Cc2ccccc2Cl)C1=S` (stereo unspecified), the TGI in the assay on HCT-15 colon was more than 100 µM; in the assay on M14 melanoma, 79.9 µM; in the assay on HS 578T breast, more than 100 µM; in the assay with SN12C renal it was 94.8 µM; in the assay on HL-60(TB) leukemia it was more than 100 µM; in the assay with HOP-92 NSCLC, 69.3 µM. Moreover, the TGI with BT-549 breast was found to be 57.5 µM; with COLO 205 colon it was 32.9 µM; in the assay on MDA-N, 60.6 µM.

On to `Oc1ccc(-c2nc(-c3cccnc3)c(-c3ccc(Cl)cc3)[nH]2)cc1O`, for which the TGI in the assay with HCT-15 colon is 22.2 µM; with HCC-2998 colon it was 26.6 µM; with M14 melanoma it was 26.4 µM; in the assay on HS 578T breast, 36.4 µM; in the assay on SN12C renal, 31.3 µM; in the assay with HL-60(TB) leukemia it was more than 100 µM. Besides, the TGI in the assay with BT-549 breast was 21.6 µM; with COLO 205 colon, 30.3 µM; in the assay with SR leukemia, more than 100 µM; with MDA-N it was 25.1 µM.

For `COC(=O)/C=C\n1c(C)cc(=O)[nH]c1=O`, the concentration for total growth inhibition (TGI) in the assay with HCT-15 colon, in the assay with HCC-2998 colon, in the assay with M14 melanoma, with HS 578T breast, in the assay with SN12C renal and with HOP-92 NSCLC was more than 100 µM each time. Besides, the TGI in the assay with BT-549 breast, in the assay on COLO 205 colon, with SR leukemia and in the assay on MDA-N was more than 100 µM each time.

For `NC(N)=N/N=C/c1nc2n(c1[N+](=O)[O-])CCS2`, the TGI in the assay on HCT-15 colon is more than 100 µM; with M14 melanoma, more than 100 µM; in the assay with HS 578T breast, more than 100 µM; in the assay with SN12C renal it was more than 100 µM; in the assay with HL-60(TB) leukemia, 55 µM; in the assay on HOP-92 NSCLC it was more than 100 µM. Further, the TGI in the assay with BT-549 breast was more than 100 µM; in the assay with COLO 205 colon it was 27.4 µM; with SR leukemia it was 88.2 µM; with MDA-N, more than 100 µM.

For `CCCCCCCCOC1C(O)C(O)C(O)C(O)C12CO2` (stereo unspecified), the TGI in the assay on HCT-15 colon, in the assay on HCC-2998 colon, with HS 578T breast, in the assay on SN12C renal, in the assay on HL-60(TB) leukemia and in the assay on BT-549 breast was more than 100 µM each time. Moreover, the total growth inhibition concentration (TGI) in the assay with COLO 205 colon, in the assay on SR leukemia and in the assay with MDA-N was more than 100 µM each time.

For the molecule `O=C(c1ccco1)N1CCCN(C(=O)c2ccco2)C1=S`, the TGI in the assay with HCT-15 colon, with M14 melanoma, in the assay with HS 578T breast, in the assay on SN12C renal, with HL-60(TB) leukemia and in the assay on BT-549 breast was more than 100 µM in each case. Also, the TGI in the assay on COLO 205 colon and in the assay on MDA-N was more than 100 µM in each case.

With `COC(=O)C1C/C(=C/N(C)C)C(=S)N1` (stereo unspecified), the TGI in the assay with HCT-15 colon, with HCC-2998 colon, in the assay with M14 melanoma, with HS 578T breast, in the assay with HOP-92 NSCLC and with BT-549 breast was more than 100 µM throughout. The TGI in the assay with COLO 205 colon, with SR leukemia and in the assay on MDA-N was more than 100 µM in each case.

For `Cc1cnc2sn(-c3ccc(Oc4ccccc4)cc3)c(=O)c2c1`, the concentration for total growth inhibition (TGI) in the assay on HCT-15 colon is 23.9 µM; in the assay with HCC-2998 colon, 22.8 µM; in the assay on M14 melanoma, 30.8 µM; in the assay on HS 578T breast it was 50.9 µM; with SN12C renal it was 43 µM; with HL-60(TB) leukemia, more than 100 µM. Moreover, the TGI came out at 42.2 µM in the assay on BT-549 breast, 47.1 µM in the assay on COLO 205 colon, 44 µM in the assay with SR leukemia and 51.1 µM with MDA-N.

For `CN(C)CCNC(=O)c1cccc2c(NCCN(C)C)c3ccccc3nc12`, the TGI with HCT-15 colon turned out to be 24.7 µM; with HCC-2998 colon it was 3.73 µM; in the assay with M14 melanoma, 18.6 µM; in the assay with HS 578T breast, 8.57 µM; in the assay with SN12C renal it was 5.94 µM; in the assay with HOP-92 NSCLC, 17.8 µM. The TGI with BT-549 breast was determined as 18.4 µM; with COLO 205 colon, 7.23 µM; in the assay with SR leukemia it was 3.45 µM; in the assay on MDA-N, 8.18 µM.

For `O=C(NCCC1([N+](=O)[O-])CCN(C(=O)c2ccccc2)CC1)c1ccccc1`, the TGI in the assay with HCT-15 colon, with M14 melanoma, in the assay with HS 578T breast, in the assay on SN12C renal, in the assay with HL-60(TB) leukemia and in the assay on BT-549 breast was more than 100 µM each time. Also, the TGI in the assay on COLO 205 colon, in the assay on SR leukemia and in the assay with MDA-N was more than 100 µM in each case.

On to `CC[C@]12C=CCN3CC[C@@]4(c5cc(Br)c(OC)cc5N(C)[C@H]4[C@@](O)(C(=O)NN)[C@@H]1O)[C@@H]32`, for which the total growth inhibition concentration (TGI) with HCT-15 colon, with HCC-2998 colon, with M14 melanoma, in the assay on HS 578T breast, in the assay on SN12C renal and with HL-60(TB) leukemia was more than 100 µM in each case. The concentration for total growth inhibition (TGI) in the assay on HOP-92 NSCLC, in the assay with BT-549 breast, in the assay on COLO 205 colon and in the assay with MDA-N was more than 100 µM each time.

`Cc1c(Cl)nc(Nc2nc3ccccc3[nH]2)nc1Cl`: the TGI in the assay with HCT-15 colon is more than 100 µM; in the assay on M14 melanoma, more than 100 µM; with HS 578T breast, 82 µM; in the assay with SN12C renal, more than 100 µM; with HL-60(TB) leukemia, more than 100 µM; with HOP-92 NSCLC, 18.6 µM. Also, the TGI with BT-549 breast, in the assay on COLO 205 colon, in the assay with SR leukemia and in the assay with MDA-N was more than 100 µM each time.

On to `Cc1ccsc1/C=N/Nc1nc2ccccc2s1`, for which the TGI in the assay on HCT-15 colon was more than 100 µM; in the assay on HCC-2998 colon, more than 100 µM; with M14 melanoma, more than 100 µM; with HS 578T breast it was 78.2 µM; in the assay with SN12C renal, 41.3 µM; in the assay with HOP-92 NSCLC, 49.5 µM. In addition, the TGI with BT-549 breast, in the assay on COLO 205 colon and in the assay on MDA-N was more than 100 µM in each case.

Regarding `CCOC(=O)C1=CNC(C(=O)OCC)C1c1cccn1-c1ccc(Cl)cc1[N+](=O)[O-]` (stereo unspecified), the concentration for total growth inhibition (TGI) in the assay on HCT-15 colon is 46.6 µM; in the assay with HCC-2998 colon, 51.9 µM; in the assay with M14 melanoma, 44.9 µM; in the assay with HS 578T breast it was 50.5 µM; in the assay on SN12C renal it was 37.8 µM; in the assay with HOP-92 NSCLC, 51.7 µM. Besides, the total growth inhibition concentration (TGI) in the assay with BT-549 breast was 61.2 µM; in the assay with COLO 205 colon, more than 100 µM; with SR leukemia, 61.8 µM; in the assay with MDA-N, 54.8 µM.

Regarding `O=CN1CCN(C(=O)c2ccc(Cl)cc2Cl)C1=S`, the total growth inhibition concentration (TGI) is more than 100 µM with HCT-15 colon; more than 100 µM with HCC-2998 colon; more than 100 µM with M14 melanoma; more than 100 µM in the assay on HS 578T breast; more than 100 µM in the assay with SN12C renal; 69.2 µM in the assay with HL-60(TB) leukemia. For the same molecule, the total growth inhibition concentration (TGI) in the assay with HOP-92 NSCLC is 98.7 µM; in the assay on BT-549 breast it was more than 100 µM; in the assay on COLO 205 colon it was more than 100 µM; with MDA-N it was more than 100 µM.

`N/C(=N\S(=O)(=O)c1ccc(S(=O)(=O)c2ccccc2)s1)Nc1ccc(Cl)cc1`: the TGI came to 35.1 µM with HCT-15 colon; 37.3 µM in the assay on M14 melanoma; 81.5 µM with HS 578T breast; 36.3 µM with SN12C renal; 53.8 µM in the assay on HL-60(TB) leukemia; 39.1 µM in the assay with HOP-92 NSCLC. Further, the TGI in the assay with BT-549 breast is 46 µM; with COLO 205 colon, 39.4 µM; with SR leukemia, 61.9 µM; in the assay on MDA-N, 39.1 µM.

Regarding `Cn1c(=O)c(C(=O)Nc2nc(C34CC5CC(CC(C5)C3)C4)cs2)c(O)c2ccccc21`, the TGI in the assay on HCT-15 colon was more than 100 µM; with HCC-2998 colon it was more than 100 µM; in the assay with HS 578T breast, more than 100 µM; in the assay with SN12C renal, more than 100 µM; in the assay with HL-60(TB) leukemia, more than 100 µM; in the assay with HOP-92 NSCLC, 65.9 µM. For the same molecule, the concentration for total growth inhibition (TGI) in the assay with BT-549 breast, with COLO 205 colon, in the assay with SR leukemia and with MDA-N was more than 100 µM each time.
